Results published in the NIST ThermoML archive (doi:10.1016/j.tca.2016.05.001).
Where “and” joins values, the source holds several entries; their conditions need not be identical. Equal values may be shown once.

Legend:
[1] = for Triple point temperature: DSC
[2] = Molar enthalpy of transition or fusion; conditions: Crystal; DSC

c1ccc2nc3ccccc3cc2c1 [acridine]
[1]
Conditions	vapor or sublimation pressure
292.1 K, Crystal, Calculated from knudsen effusion weight loss	4e-06 kPa
293 K, Crystal, Calculated from knudsen effusion weight loss	4.7e-06 kPa
295.2 K, Crystal, Calculated from knudsen effusion weight loss	6.3e-06 kPa
296.1 K, Crystal, Calculated from knudsen effusion weight loss	6.7e-06 kPa
298.4 K, Crystal, Calculated from knudsen effusion weight loss	9.6e-06 kPa
300 K, Crystal, Calculated from knudsen effusion weight loss	1.2e-05 kPa
301.3 K, Crystal, Calculated from knudsen effusion weight loss	1.4e-05 kPa
303 K, Crystal, Calculated from knudsen effusion weight loss	1.8e-05 kPa
304.2 K, Crystal, Calculated from knudsen effusion weight loss	2e-05 kPa
305.9 K, Crystal, Calculated from knudsen effusion weight loss	2.6e-05 kPa
306.2 K, Crystal, Calculated from knudsen effusion weight loss	2.6e-05 kPa
308.1 K, Crystal, Calculated from knudsen effusion weight loss	3.3e-05 kPa
308.9 K, Crystal, Calculated from knudsen effusion weight loss	3.7e-05 kPa
311.1 K, Crystal, Calculated from knudsen effusion weight loss	4.7e-05 kPa
311.9 K, Crystal, Calculated from knudsen effusion weight loss	5.3e-05 kPa
314.1 K, Crystal, Calculated from knudsen effusion weight loss	6.8e-05 kPa
314.8 K, Crystal, Calculated from knudsen effusion weight loss	7.1e-05 kPa
315.8 K, Crystal, Calculated from knudsen effusion weight loss	8.4e-05 kPa
317 K, Crystal, Calculated from knudsen effusion weight loss	9.3e-05 kPa
317.8 K, Crystal, Calculated from knudsen effusion weight loss	9.8e-05 kPa
318.1 K, Crystal, Calculated from knudsen effusion weight loss	9.7e-05 kPa
318.8 K, Crystal, Calculated from knudsen effusion weight loss	0.000119 kPa
319.4 K, Crystal, Calculated from knudsen effusion weight loss	0.00011 kPa
320 K, Crystal, Calculated from knudsen effusion weight loss	0.000134 kPa
320.8 K, Crystal, Calculated from knudsen effusion weight loss	0.000138 kPa and 0.000148 kPa
321.1 K, Crystal, Calculated from knudsen effusion weight loss	0.00014 kPa
322.3 K, Crystal, Calculated from knudsen effusion weight loss	0.00015 kPa
322.9 K, Crystal, Calculated from knudsen effusion weight loss	0.000179 kPa
324 K, Crystal, Calculated from knudsen effusion weight loss	0.00019 kPa
325.1 K, Crystal, Calculated from knudsen effusion weight loss	0.00021 kPa
327 K, Crystal, Calculated from knudsen effusion weight loss	0.00027 kPa
328.1 K, Crystal, Calculated from knudsen effusion weight loss	0.0003 kPa
329.9 K, Crystal, Calculated from knudsen effusion weight loss	0.00036 kPa
331.1 K, Crystal, Calculated from knudsen effusion weight loss	0.0004 kPa
332.9 K, Crystal, Calculated from knudsen effusion weight loss	0.00048 kPa
334 K, Crystal, Calculated from knudsen effusion weight loss	0.00057 kPa
335.9 K, Crystal, Calculated from knudsen effusion weight loss	0.0007 kPa
337.1 K, Crystal, Calculated from knudsen effusion weight loss	0.00075 kPa
338.9 K, Crystal, Calculated from knudsen effusion weight loss	0.00091 kPa
340.2 K, Crystal, Calculated from knudsen effusion weight loss	0.00106 kPa
341.7 K, Crystal, Calculated from knudsen effusion weight loss	0.00122 kPa
343 K, Crystal, Calculated from knudsen effusion weight loss	0.00145 kPa
344.6 K, Crystal, Calculated from knudsen effusion weight loss	0.00162 kPa
346.1 K, Crystal, Calculated from knudsen effusion weight loss	0.0019 kPa
347.6 K, Crystal, Calculated from knudsen effusion weight loss	0.0022 kPa
348.8 K, Crystal, Calculated from knudsen effusion weight loss	0.0025 kPa
388.2 K, Liquid, Rate of evaporation	0.067 kPa
391.2 K, Liquid, Rate of evaporation	0.08 kPa
395.2 K, Liquid, Rate of evaporation	0.099 kPa
399.1 K, Liquid, Rate of evaporation	0.119 kPa
402.1 K, Liquid, Rate of evaporation	0.147 kPa
405 K, Liquid, Rate of evaporation	0.17 kPa
408 K, Liquid, Rate of evaporation	0.197 kPa
412 K, Liquid, Rate of evaporation	0.241 kPa
416 K, Liquid, Rate of evaporation	0.292 kPa
419.9 K, Liquid, Rate of evaporation	0.338 kPa
422.9 K, Liquid, Rate of evaporation	0.396 kPa
425.9 K, Liquid, Rate of evaporation	0.443 kPa
428.9 K, Liquid, Rate of evaporation	0.51 kPa
431.8 K, Liquid, Rate of evaporation	0.601 kPa

Conditions	Triple point temperature [K]
[1], Crystal	382

Conditions	Molar enthalpy of transition or fusion [kcal/mol]
[2]	4.9

c1ccc2c(c1)cnc1ccccc12 [phenanthridine]
[1]
Conditions	vapor or sublimation pressure
318.6 K, Crystal, Torsion effusion method	3.8e-05 kPa
322.1 K, Crystal, Torsion effusion method	5.7e-05 kPa
323.2 K, Crystal, Torsion effusion method	7.6e-05 kPa
324 K, Crystal, Torsion effusion method	7.6e-05 kPa
325 K, Crystal, Torsion effusion method	8.5e-05 kPa
325.2 K, Crystal, Torsion effusion method	9.4e-05 kPa
325.9 K, Crystal, Torsion effusion method	0.000104 kPa
327 K, Crystal, Torsion effusion method	0.000104 kPa
327.6 K, Crystal, Torsion effusion method	0.000124 kPa
329.1 K, Crystal, Torsion effusion method	0.000133 kPa
329.3 K, Crystal, Torsion effusion method	0.000151 kPa
330 K, Crystal, Torsion effusion method	0.000142 kPa
330.9 K, Crystal, Torsion effusion method	0.000181 kPa
331.9 K, Crystal, Torsion effusion method	0.00019 kPa
332.6 K, Crystal, Torsion effusion method	0.000208 kPa
332.9 K, Crystal, Torsion effusion method	0.000228 kPa
333.9 K, Crystal, Torsion effusion method	0.00025 kPa
334.1 K, Crystal, Torsion effusion method	0.00023 kPa
334.7 K, Crystal, Torsion effusion method	0.00025 kPa
335 K, Crystal, Torsion effusion method	0.00026 kPa
335.7 K, Crystal, Torsion effusion method	0.0003 kPa
335.9 K, Crystal, Torsion effusion method	0.00028 kPa
337 K, Crystal, Torsion effusion method	0.00034 kPa
337.9 K, Crystal, Torsion effusion method	0.00038 kPa
338.4 K, Crystal, Torsion effusion method	0.00036 kPa
339.8 K, Crystal, Torsion effusion method	0.00045 kPa
340 K, Crystal, Torsion effusion method	0.00044 kPa and 0.00047 kPa
341.4 K, Crystal, Torsion effusion method	0.00053 kPa
341.5 K, Crystal, Torsion effusion method	0.00055 kPa
342.2 K, Crystal, Torsion effusion method	0.00061 kPa
342.9 K, Crystal, Torsion effusion method	0.00061 kPa
343.2 K, Crystal, Torsion effusion method	0.00072 kPa
345.3 K, Crystal, Torsion effusion method	0.00085 kPa
345.5 K, Crystal, Torsion effusion method	0.00079 kPa
347.1 K, Crystal, Torsion effusion method	0.001 kPa
347.3 K, Crystal, Torsion effusion method	0.00093 kPa
348.2 K, Crystal, Torsion effusion method	0.00115 kPa
349.4 K, Crystal, Torsion effusion method	0.00128 kPa
388.1 K, Liquid, Rate of evaporation	0.038 kPa
393.1 K, Liquid, Rate of evaporation	0.05 kPa
398.1 K, Liquid, Rate of evaporation	0.065 kPa
403.1 K, Liquid, Rate of evaporation	0.086 kPa
408.1 K, Liquid, Rate of evaporation	0.113 kPa
413.1 K, Liquid, Rate of evaporation	0.145 kPa
418.1 K, Liquid, Rate of evaporation	0.187 kPa
423.1 K, Liquid, Rate of evaporation	0.24 kPa
428.1 K, Liquid, Rate of evaporation	0.302 kPa
433.1 K, Liquid, Rate of evaporation	0.369 kPa
438.1 K, Liquid, Rate of evaporation	0.469 kPa
443.1 K, Liquid, Rate of evaporation	0.567 kPa
448.1 K, Liquid, Rate of evaporation	0.728 kPa
453.1 K, Liquid, Rate of evaporation	0.854 kPa

Conditions	Triple point temperature [K]
[1], Crystal	379.1

Conditions	Molar enthalpy of transition or fusion [kcal/mol]
[2]	5.93

c1ccc2nc3ccccc3nc2c1 [phenazine]
[1]
Conditions	vapor or sublimation pressure
291.8 K, Crystal, Calculated from knudsen effusion weight loss	9.4e-07 kPa
293.5 K, Crystal, Calculated from knudsen effusion weight loss	1.3e-06 kPa
296.3 K, Crystal, Calculated from knudsen effusion weight loss	1.6e-06 kPa
300.3 K, Crystal, Calculated from knudsen effusion weight loss	2.9e-06 kPa
303.5 K, Crystal, Calculated from knudsen effusion weight loss	4.7e-06 kPa
306.3 K, Crystal, Calculated from knudsen effusion weight loss	6.1e-06 kPa
310.3 K, Crystal, Calculated from knudsen effusion weight loss	1.1e-05 kPa
313.3 K, Crystal, Calculated from knudsen effusion weight loss	1.81e-05 kPa
316.2 K, Crystal, Calculated from knudsen effusion weight loss	2.24e-05 kPa and 2.6e-05 kPa
320.1 K, Crystal, Calculated from knudsen effusion weight loss	3.8e-05 kPa and 4.6e-05 kPa
323.1 K, Crystal, Calculated from knudsen effusion weight loss	6.6e-05 kPa
323.6 K, Crystal, Calculated from knudsen effusion weight loss	6.5e-05 kPa
326.1 K, Crystal, Calculated from knudsen effusion weight loss	8.9e-05 kPa
330 K, Crystal, Calculated from knudsen effusion weight loss	0.00015 kPa
332.9 K, Crystal, Calculated from knudsen effusion weight loss	0.000196 kPa
335.9 K, Crystal, Calculated from knudsen effusion weight loss	0.000264 kPa
339.8 K, Crystal, Calculated from knudsen effusion weight loss	0.0004 kPa
342.8 K, Crystal, Calculated from knudsen effusion weight loss	0.00056 kPa
450.3 K, Liquid, Rate of evaporation	2.018 kPa
451.4 K, Liquid, Rate of evaporation	2.101 kPa
452.5 K, Liquid, Rate of evaporation	2.186 kPa
454.8 K, Liquid, Rate of evaporation	2.441 kPa
456.7 K, Liquid, Rate of evaporation	2.618 kPa
458.9 K, Liquid, Rate of evaporation	2.836 kPa
460.1 K, Liquid, Rate of evaporation	3.041 kPa
462.6 K, Liquid, Rate of evaporation	3.328 kPa
464.2 K, Liquid, Rate of evaporation	3.533 kPa
466.7 K, Liquid, Rate of evaporation	3.944 kPa
469.1 K, Liquid, Rate of evaporation	4.316 kPa

Conditions	Triple point temperature [K]
[1], Crystal	446.4

Conditions	Molar enthalpy of transition or fusion [kcal/mol]
[2]	4.61
